Data reported in publication PMC3130079 (2011).
pEC50: −log10 of the molar value.

Molecular target: TRPA1 (Mus musculus, UniProt Q8BLA8)
Assay: Ca2+ imaging and whole-cell patch clamp in TRPA1-transfected CHO cells
Type: cell-based

TRPA1, sequence (Q8BLA8 whole entry): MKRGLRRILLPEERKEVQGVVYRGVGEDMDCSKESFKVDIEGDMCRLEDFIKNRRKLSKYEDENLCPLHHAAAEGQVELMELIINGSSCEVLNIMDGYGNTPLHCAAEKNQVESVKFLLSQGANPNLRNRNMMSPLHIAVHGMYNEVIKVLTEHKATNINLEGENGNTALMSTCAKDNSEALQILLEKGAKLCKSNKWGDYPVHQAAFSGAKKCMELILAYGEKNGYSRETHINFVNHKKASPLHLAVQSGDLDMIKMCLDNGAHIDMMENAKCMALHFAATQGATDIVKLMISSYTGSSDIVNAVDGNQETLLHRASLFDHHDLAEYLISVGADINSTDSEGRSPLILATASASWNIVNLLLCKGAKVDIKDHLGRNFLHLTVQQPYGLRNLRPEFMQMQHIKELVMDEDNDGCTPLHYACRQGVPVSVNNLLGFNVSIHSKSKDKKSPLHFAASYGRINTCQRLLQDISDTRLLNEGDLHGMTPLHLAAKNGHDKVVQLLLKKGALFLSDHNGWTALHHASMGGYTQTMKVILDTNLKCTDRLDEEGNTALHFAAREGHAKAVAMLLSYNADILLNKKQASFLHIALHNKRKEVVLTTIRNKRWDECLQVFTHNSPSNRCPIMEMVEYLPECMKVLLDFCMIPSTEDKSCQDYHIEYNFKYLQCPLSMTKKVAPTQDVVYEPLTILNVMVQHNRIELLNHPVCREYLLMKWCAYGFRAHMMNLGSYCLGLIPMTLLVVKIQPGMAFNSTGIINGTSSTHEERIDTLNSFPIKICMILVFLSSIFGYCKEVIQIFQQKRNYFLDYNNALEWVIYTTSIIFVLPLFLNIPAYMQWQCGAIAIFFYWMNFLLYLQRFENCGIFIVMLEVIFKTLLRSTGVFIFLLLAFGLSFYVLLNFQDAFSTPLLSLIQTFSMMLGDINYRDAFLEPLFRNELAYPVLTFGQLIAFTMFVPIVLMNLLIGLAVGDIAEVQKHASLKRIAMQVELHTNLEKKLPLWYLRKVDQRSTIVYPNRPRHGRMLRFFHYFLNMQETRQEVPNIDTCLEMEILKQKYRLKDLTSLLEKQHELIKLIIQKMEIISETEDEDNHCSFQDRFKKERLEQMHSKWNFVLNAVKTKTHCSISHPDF

## COc1ccc(C(=O)c2c(C)n(CCN3CCOCC3)c3cc(I)ccc23)cc1 [AM630]
  pEC50: 5.70
